In patent US8557793B2, “Theanine derivative, preparation method thereof, and use thereof for alleviating acne” (Amorepacific Corporation, priority 2010, dated 2013):

What was measured:
S. Epidermidis = experiment: Selective anti-bacterial test, count of germs after shaking culture with sample; assay type: cell-based; details: for S. Epidermidis (%) count of germs: count of germs in control group without sample defined as 100%, shaking culture at 32° C. for one day; for change in the count of S. Epidermidis (in words): summary of Table 1
Procedure: (§1) Each sample was added to an aqueous solution of 1% peptone and sterilized. 20 μl/ml of a test germ solution was injected into the sample-containing sterilized aqueous solution of peptone and then subjected to shaking culture at 32° C. for one day. The test germs selected were P. acnes known as present in the skin and harmful to the skin and S. Epidermidis known as relatively harmless to the skin. The solution after the shaking culture was diluted to 1/100 with normal diluting water. 0.1 ml of the diluted solution was placed on a Petri dish and then […]. To the diluted solution was poured TS agar cooled down to about 50° C. The Petri dish hardened with the TS agar was subjected to anaerobic culture at 35° C. for one day to measure the count of the germs. The P. acnes group was subjected to anaerobic culture at 35° C. for one day and then diluted to 1/100 with normal diluting water. 0.1 ml of the diluted solution was placed on a Petri dish, hardened with BHI agar, and subjected to anaerobic culture at 35° C. for 3 days to count the germs. As comparative groups, theanine and maltose were used for the testing. The count of germs in the control group without containing the sample was defined as 100%.

P. acnes = experiment: as above; assay type: cell-based, Propionibacterium acnes; details: for P. acnes (%) count of germs: count of germs in control group without sample defined as 100%, shaking culture at 32° C. for one day; for change in the count of P. acnes (in words): summary of Table 1
Procedure: as §1

[1] = Primary skin irritation test (closed patch test); assay type: in vivo, human; details: for Extent of Skin Irritation: average score on scale 0 (None) to 4 (Extreme), aqueous solution, closed patch on lower arm, 20 subjects, after one day; for safety to the skin (in words): summary of Table 3
Excerpt: An aqueous solution of each theanine derivative of examples 1, 2 and 3 was applied on the lower part of the arm of 20 healthy male and female subjects according to the closed patch test method. The arm was covered with a plastic cap to block external stimuli. All numeral designations in Table 3 are averages of the irritations calculated according to the evaluation method of Table 2. [table]

Structure (SMILES) | S. Epidermidis (%) count of germs (S. Epidermidis) [%] | P. acnes (%) count of germs (P. acnes) [%] | change in the count of S. Epidermidis (in words) (S. Epidermidis) | Extent of Skin Irritation [1] | safety to the skin (in words) [1] | change in the count of P. acnes (in words) (P. acnes)
CCNC(=O)CC[C@H](N)C(=O)O [Theanine, theanine] | 98 | 50 | – | – | – | –
CCNC(=O)CC[C@H](NCC1(O)OC[C@@H](O)C(O[C@H]2O[C@H](CO)[C@@H](O)[C@H](O)[C@H]2O)[C@@H]1O)C(=O)OC (stereo partly shown) [Example 2, Maltulosyl Theanine Methyl Ester] | 93 | 27 | no significant change | 0.2 | safe to the skin | reduced count
CCN(CC)C(=O)CC[C@H](NCC1(O)OC[C@@H](O)C(O[C@H]2O[C@H](CO)[C@@H](O)[C@H](O)[C@H]2O)[C@@H]1O)C(=O)O (stereo partly shown) [Example 3, Maltulosyl N-Ethyl Theanine] | 86 | 15 | no significant change | 0.1 | safe to the skin | reduced count
OC[C@H]1O[C@H](O[C@H]2[C@H](O)[C@@H](O)C(O)O[C@@H]2CO)[C@H](O)[C@@H](O)[C@@H]1O (mixture of isomers) [Maltose, maltose, reference compound] | 89 | 110 | – | – | – | –
CCNC(=O)CC[C@H](NCC1(O)OC[C@@H](O)C(O[C@H]2O[C@H](CO)[C@@H](O)[C@H](O)[C@H]2O)[C@@H]1O)C(=O)O (stereo partly shown) [Example 1, Maltulosyl Theanine] | 83 | 9 | no significant change | 0.1 | safe to the skin | reduced count
